Assays:
[1] = test system: TGF-β-stimulated SMAD3 phosphorylation in BEAS-2B cells; assay: Cellular ALK5 potency assay, inhibition of TGF-β stimulated pSMAD3 formation in BEAS-2B cells; assay type: cell-based; details: Homo sapiens; inhibition of TGF-β stimulated pSMAD3 formation, BEAS-2B cells; read-out: BEAS2B pIC50 (converted)
How it was run: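 SMAD3 phosphorylation was measured by AlphaLISA after 30 min TGF-β stimulation (10 ng/mL final) of BEAS-2B cells preincubated 1 h with compound at 37 °C. Results given as pIC50.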

[2] = target: T1, recombinant human ALK5 (TGF-βR1) protein (Homo sapiens, UniProt P36897); assay: Biochemical ALK5 (TGF-βR1) assay to measure pKi (LANCE Ultra ULight kinase assay); details: apparent pKi from pIC50 by Cheng-Prusoff, read-out: ALK5 pKi (converted)
T1 construct: purchased Life Technologies PR9075A
T1 sequence (P36897 34-503): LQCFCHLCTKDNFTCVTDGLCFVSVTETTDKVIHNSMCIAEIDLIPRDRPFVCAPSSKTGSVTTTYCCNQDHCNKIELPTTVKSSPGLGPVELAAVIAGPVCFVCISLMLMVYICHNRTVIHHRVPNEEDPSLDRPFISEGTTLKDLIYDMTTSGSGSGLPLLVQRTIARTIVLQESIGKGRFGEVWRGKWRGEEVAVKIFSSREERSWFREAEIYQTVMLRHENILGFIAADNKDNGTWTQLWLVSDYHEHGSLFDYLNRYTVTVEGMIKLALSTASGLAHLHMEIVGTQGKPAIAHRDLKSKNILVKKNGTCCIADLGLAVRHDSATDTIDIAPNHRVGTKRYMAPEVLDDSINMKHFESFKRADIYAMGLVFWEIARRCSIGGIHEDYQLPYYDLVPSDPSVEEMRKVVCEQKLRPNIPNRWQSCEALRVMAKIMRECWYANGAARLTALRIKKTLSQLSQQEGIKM
How it was run: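 After a 60 min room-temperature preincubation of ALK5 with compound, phosphorylation proceeds 60 min at 37 °C on ATP addition (125 μM as 5× stock). Detection: Eu-labelled phospho-Thr1342 Topo IIα antibody in EDTA buffer, pH 7.0; emission 665 nm.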

| Structure (SMILES) | Ki [2] [nM] | IC50 [1] [nM] |
| --- | --- | --- |
| COc1ccc(-c2cnc3ccc(-c4c[nH]nc4-c4cccc(C)n4)nc3c2)cn1 [Compound 420, 7-(6-methoxy-3-pyridyl)-2-[3-(6-methyl-2-pyridyl)-1H-pyrazol-4-yl]-1,5-naphthyridine] | < 0.0316 | < 20 |
| Cc1cccc(-c2[nH]cnc2-c2ccc3nccc(C(=O)O[C@H]4CC[C@@](C)(N)CC4)c3c2)n1 [Compound 1161, (4-amino-4-methyl-cyclohexyl) 6-[5-(6-methyl-2-pyridyl)-1H-imidazol-4-yl]quinoline-4-carboxylate] | 3.98 to 31.6 | 200 to 1260 |
| Cc1nc(-c2n[nH]cc2-c2ccc3ncc(-c4nc5n(n4)CCNC5)cc3n2)ccc1F [Compound 176, 2-[3-(5-fluoro-6-methyl-2-pyridyl)-1H-pyrazol-4-yl]-7-(5,6,7,8-tetrahydro-[1,2,4]triazolo[1,5-a]pyrazin-2-yl)-1,5-naphthyridine] | 0.0398 to 0.316 | 25.1 to 158 |
| Cc1cccc(-c2n[nH]cc2-c2ccc3ncc(-c4cccc(C(=O)O)c4)cc3n2)n1 [Compound 172, 3-[6-[3-(6-methyl-2-pyridyl)-1H-pyrazol-4-yl]-1,5-naphthyridin-3-yl]benzoic acid] | < 0.0316 | 1580 to 10000 |
| COc1[nH]nc(-c2cccc(C)n2)c1-c1ccc2ncc(N3CCC(N4CCN(C)CC4)CC3)cc2n1 [Compound 112, 2-[5-methoxy-3-(6-methyl-2-pyridyl)-1H-pyrazol-4-yl]-7-[4-(4-methylpiperazin-1-yl)-1-piperidyl]-1,5-naphthyridine] | 0.0398 to 0.316 | 200 to 1260 |
| Cc1cccc(-c2n[nH]cc2-c2ccc3ncc(-c4ccc[nH]4)cc3n2)n1 [Compound 591, 2-[3-(6-methyl-2-pyridyl)-1H-pyrazol-4-yl]-7-(1H-pyrrol-2-yl)-1,5-naphthyridine] | < 0.0316 | < 20 |
| Cc1cccc(-c2n[nH]cc2-c2ccc3ncc(-c4cnn(CCN5CCCC5=O)c4)cc3n2)n1 [Compound 571, 1-[2-[4-[6-[3-(6-methyl-2-pyridyl)-1H-pyrazol-4-yl]-1,5-naphthyridin-3-yl]pyrazol-1-yl]ethyl]pyrrolidin-2-one] | < 0.0316 | 25.1 to 158 |
| Cc1cccc(-c2[nH]ncc2-c2ccc3nccc(C(=O)O)c3c2)n1 [Compound 1064, 6-[5-(6-methyl-2-pyridyl)-1H-pyrazol-4-yl]quinoline-4-carboxylic acid] | 3.98 to 31.6 | 1580 to 10000 |
| Cc1cccc(-c2[nH]cnc2-c2ccc3nccc(C(=O)O)c3c2)n1 [Compound 1097, 6-[5-(6-methyl-2-pyridyl)-1H-imidazol-4-yl]quinoline-4-carboxylic acid] | 0.398 to 3.16 | 200 to 1260 |
| CNCCn1cc(-c2cnc3ccc(-c4c(-c5ccc(F)c(C)n5)nc5ccccn45)cc3c2)cn1 [Compound 79, 2-[4-[6-[2-(5-fluoro-6-methyl-2-pyridyl)imidazo[1,2-a]pyridin-3-yl]-3-quinolyl]pyrazol-1-yl]-N-methyl-ethanamine] | 0.0398 to 0.316 | 25.1 to 158 |
| Cc1cccc(-c2n[nH]cc2-c2ccc3ncc(NCC4CNC4)cc3n2)n1 [Compound 431, N-(azetidin-3-ylmethyl)-6-[3-(6-methyl-2-pyridyl)-1H-pyrazol-4-yl]-1,5-naphthyridin-3-amine] | 0.0398 to 0.316 | 1580 to 10000 |
| Cc1cccc(-c2n[nH]cc2-c2ccc3nccc(N(C)C)c3n2)n1 [Compound 837, N,N-dimethyl-6-[3-(6-methyl-2-pyridyl)-1H-pyrazol-4-yl]-1,5-naphthyridin-4-amine] | 0.0398 to 0.316 | 25.1 to 158 |
| Cc1cccc(-c2n[nH]cc2-c2ccc3ncc(N(C)CC(=O)N4CCOCC4)cc3n2)n1 [Compound 181, 2-[methyl-[6-[3-(6-methyl-2-pyridyl)-1H-pyrazol-4-yl]-1,5-naphthyridin-3-yl]amino]-1-morpholino-ethanone] | 0.398 to 3.16 | 25.1 to 158 |
| Cc1nc(-c2[nH]cnc2-c2ccc3ncc(-c4cn[nH]c4)cc3n2)ccc1F [Compound 536, 2-[5-(5-fluoro-6-methyl-2-pyridyl)-1H-imidazol-4-yl]-7-(1H-pyrazol-4-yl)-1,5-naphthyridine] | < 0.0316 | < 20 |

Second part, led by results:

| Ki [2] [nM] | Structure (SMILES) | IC50 [1] [nM] |
| --- | --- | --- |
| < 0.0316 | Cc1cccc(-c2[nH]cnc2-c2ccc3ncc(N4CCC5(CCNC5)C4)cc3c2)n1 (stereo not shown) [Compound 387, 3-(2,7-diazaspiro[4.4]nonan-2-yl)-6-[5-(6-methyl-2-pyridyl)-1H-imidazol-4-yl]quinoline] | 25.1 to 158 |
| 0.0398 to 0.316 | Cc1cccc(-c2[nH]cnc2-c2ccc3ncc(N4CCC(N)CC4)cc3c2)n1 [Compound 438, 1-[6-[5-(6-methyl-2-pyridyl)-1H-imidazol-4-yl]-3-quinolyl]piperidin-4-amine] | 25.1 to 158 |
| < 0.0316 | Cc1cccc(-c2[nH]cnc2-c2ccc3ncc(-c4cc(C(=O)O)cs4)cc3c2)n1 [Compound 1082, 5-[6-[5-(6-methyl-2-pyridyl)-1H-imidazol-4-yl]-3-quinolyl]thiophene-3-carboxylic acid] | 200 to 1260 |
| 0.0398 to 0.316 | CNCc1cncc(-c2cnc3ccc(-c4nc[nH]c4-c4cccc(C)n4)cc3c2)c1 [Compound 342, N-methyl-1-[5-[6-[5-(6-methyl-2-pyridyl)-1H-imidazol-4-yl]-3-quinolyl]-3-pyridyl]methanamine] | 25.1 to 158 |
| 0.0398 to 0.316 | Cc1cccc(-c2n[nH]cc2-c2ccc3ncc(N4CCNC5(CCC5)C4)cc3n2)n1 [Compound 223, 7-(5,8-diazaspiro[3.5]nonan-8-yl)-2-[3-(6-methyl-2-pyridyl)-1H-pyrazol-4-yl]-1,5-naphthyridine] | 25.1 to 158 |
| < 0.0316 | Cc1cccc(-c2nc3ccccn3c2-c2ccc3ncc(N4CCC(N(C)C)C4)cc3c2)n1 (stereo not shown) [Compound 272, N,N-dimethyl-1-[6-[2-(6-methyl-2-pyridyl)imidazo[1,2-a]pyridin-3-yl]-3-quinolyl]pyrrolidin-3-amine] | 25.1 to 158 |
| 0.0398 to 0.316 | Cc1cccc(-c2[nH]cnc2-c2ccc3ncc(NC(=O)CC4CNC4)cc3c2)n1 [Compound 255, 2-(azetidin-3-yl)-N-[6-[5-(6-methyl-2-pyridyl)-1H-imidazol-4-yl]-3-quinolyl]acetamide] | 200 to 1260 |
| < 0.0316 | Cc1cccc(-c2[nH]cnc2-c2ccc3ncc(-c4cc(C(=O)O[C@H]5CCNC5)cs4)cc3c2)n1 [Compound 885, [(3S)-pyrrolidin-3-yl] 5-[6-[5-(6-methyl-2-pyridyl)-1H-imidazol-4-yl]-3-quinolyl]thiophene-3-carboxylate] | 25.1 to 158 |
| 0.0398 to 0.316 | Cc1cccc(-c2[nH]cnc2-c2ccc3ncc(C4=CC[C@H](NC(=O)[C@H]5CCCN5)CC4)cc3c2)n1 [Compound 776, (2R)-N-[(1R)-4-[6-[5-(6-methyl-2-pyridyl)-1H-imidazol-4-yl]-3-quinolyl]cyclohex-3-en-1-yl]pyrrolidine-2-carboxamide] | 25.1 to 158 |
| 0.0398 to 0.316 | Cc1cccc(-c2[nH]cnc2-c2ccc3ncc(-c4ncc(C(=O)O[C@H]5CCNC5)cn4)cc3c2)n1 [Compound 1158, [(3S)-pyrrolidin-3-yl] 2-[6-[5-(6-methyl-2-pyridyl)-1H-imidazol-4-yl]-3-quinolyl]pyrimidine-5-carboxylate] | 25.1 to 158 |
| 0.0398 to 0.316 | Cc1cccc(-c2[nH]nnc2-c2ccc3ncc(N4CCNCC4)cc3c2)n1 [Compound 409, 6-[5-(6-methyl-2-pyridyl)-1H-triazol-4-yl]-3-piperazin-1-yl-quinoline] | 25.1 to 158 |
| 0.0398 to 0.316 | Cc1cccc(-c2[nH]ncc2-c2ccc3ncc(C(=O)OC[C@@H]4CCCCN4)cc3c2)n1 [Compound 1205, [(2S)-2-piperidyl]methyl 6-[5-(6-methyl-2-pyridyl)-1H-pyrazol-4-yl]quinoline-3-carboxylate] | < 20 |
| 0.0398 to 0.316 | Cc1cccc(-c2n[nH]cc2-c2ccc3ncc(-c4cnn5c4CNCC5)cc3n2)n1 [Compound 308, 2-[3-(6-methyl-2-pyridyl)-1H-pyrazol-4-yl]-7-(4,5,6,7-tetrahydropyrazolo[1,5-a]pyrazin-3-yl)-1,5-naphthyridine] | < 20 |
| 0.0398 to 0.316 | Cc1cccc(-c2[nH]cnc2-c2ccc3ncc(-c4cnc(C(=O)OC5CCNCC5)nc4)cc3c2)n1 [Compound 1131, 4-piperidyl 5-[6-[5-(6-methyl-2-pyridyl)-1H-imidazol-4-yl]-3-quinolyl]pyrimidine-2-carboxylate] | 200 to 1260 |
| 0.0398 to 0.316 | Cc1cccc(-c2[nH]cnc2-c2ccc3ncc(Nc4cnn(C5CNC5)c4)cc3c2)n1 [Compound 227, N-[1-(azetidin-3-yl)pyrazol-4-yl]-6-[5-(6-methyl-2-pyridyl)-1H-imidazol-4-yl]quinolin-3-amine] | 200 to 1260 |
